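The concentration for 50% growth inhibition is given as GI50. The concentration for full growth arrest is given as TGI.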
Key:
Experiment in all cases: NCI-60 cell line screen, 384-well format
SNB-19 CNS = test system: SNB-19 CNS
M14 melanoma = test system: M14 melanoma
EKVX NSCLC = test system: EKVX NSCLC
SK-MEL-28 melanoma = test system: SK-MEL-28 melanoma
UACC-257 melanoma = test system: UACC-257 melanoma
U251 glioblastoma = test system: U251 glioblastoma
HT29 colon = test system: HT29 colon
CAKI-1 renal = test system: CAKI-1 renal
SNB-75 CNS = test system: SNB-75 CNS
SK-OV-3 ovarian = test system: SK-OV-3 ovarian
T-47D breast = test system: T-47D breast
IGROV1 ovarian = test system: IGROV1 ovarian
MDA-MB-435 melanoma = test system: MDA-MB-435 melanoma
KM12 colon = test system: KM12 colon
COLO 205 colon = test system: COLO 205 colon
RXF 393 renal = test system: RXF 393 renal
HL-60(TB) leukemia = test system: HL-60(TB) leukemia
OVCAR-4 ovarian = test system: OVCAR-4 ovarian
UACC-62 melanoma = test system: UACC-62 melanoma
MCF7 breast = test system: MCF7 breast
PC-3 prostate = test system: PC-3 prostate
OVCAR-3 ovarian = test system: OVCAR-3 ovarian
SK-MEL-5 melanoma = test system: SK-MEL-5 melanoma
HOP-62 NSCLC = test system: HOP-62 NSCLC
SW-620 colon = test system: SW-620 colon
A549 NSCLC = test system: A549 NSCLC
DU-145 prostate = test system: DU-145 prostate
HS 578T breast = test system: HS 578T breast
HCT-116 colon = test system: HCT-116 colon
NCI-H23 lung = test system: NCI-H23 lung
SF-295 CNS = test system: SF-295 CNS
SR leukemia = test system: SR leukemia
MALME-3M melanoma = test system: MALME-3M melanoma
NCI-H322M lung = test system: NCI-H322M lung
SN12C renal = test system: SN12C renal
MDA-MB-468 breast = test system: MDA-MB-468 breast
NCI-H460 NSCLC = test system: NCI-H460 NSCLC
MDA-MB-231 breast = test system: MDA-MB-231 breast
RPMI-8226 leukemia = test system: RPMI-8226 leukemia
CCRF-CEM leukemia = test system: CCRF-CEM leukemia
NCI/ADR-RES ovarian = test system: NCI/ADR-RES ovarian
BT-549 breast = test system: BT-549 breast
SF-539 CNS = test system: SF-539 CNS
OVCAR-5 ovarian = test system: OVCAR-5 ovarian
786-0 renal = test system: 786-0 renal
TK-10 renal = test system: TK-10 renal
A498 renal = test system: A498 renal
MOLT-4 leukemia = test system: MOLT-4 leukemia
ACHN renal = test system: ACHN renal
SK-MEL-2 melanoma = test system: SK-MEL-2 melanoma
HOP-92 NSCLC = test system: HOP-92 NSCLC
K-562 leukemia = test system: K-562 leukemia
HCC-2998 colon = test system: HCC-2998 colon
SF-268 CNS = test system: SF-268 CNS
HCT-15 colon = test system: HCT-15 colon
LOX IMVI melanoma = test system: LOX IMVI melanoma
NCI-H522 lung = test system: NCI-H522 lung
NCI-H226 lung = test system: NCI-H226 lung

## CN1CC[C@]2(c3cccc(O)c3)CC(=O)/C(=C/c3ccccc3)[C@H]1C2
SNB-19 CNS
  GI50: 15 µM
  TGI: 29 µM
M14 melanoma
  GI50: 12.7 µM
  TGI: 25.5 µM
EKVX NSCLC
  GI50: 6.2 µM
  TGI: 20.3 µM
SK-MEL-28 melanoma
  GI50: 10.7 µM
  TGI: 22.8 µM
UACC-257 melanoma
  GI50: 3.9 µM
  TGI: 13.7 µM
U251 glioblastoma
  GI50: 4.11 µM
  TGI: 15.5 µM
HT29 colon
  GI50: 13.4 µM
  TGI: 26.8 µM
CAKI-1 renal
  GI50: 8.77 µM
  TGI: 21.1 µM
SNB-75 CNS
  GI50: 6.43 µM
  TGI: 18.8 µM
SK-OV-3 ovarian
  GI50: 5.01 µM
  TGI: 16.6 µM
T-47D breast
  GI50: 11.8 µM
  TGI: 24.5 µM
IGROV1 ovarian
  GI50: 14.5 µM
  TGI: 28 µM
MDA-MB-435 melanoma
  GI50: 4.41 µM
  TGI: 16.2 µM
KM12 colon
  GI50: 4.77 µM
  TGI: 16.4 µM
COLO 205 colon
  GI50: 15.4 µM
  TGI: 28.9 µM
RXF 393 renal
  GI50: 3.86 µM
  TGI: 14.5 µM
HL-60(TB) leukemia
  GI50: 2.06 µM
  TGI: 4.13 µM
OVCAR-4 ovarian
  GI50: 14.8 µM
  TGI: 28.2 µM
UACC-62 melanoma
  GI50: 10.5 µM
  TGI: 22.5 µM
MCF7 breast
  GI50: 11.5 µM
  TGI: 23.9 µM
PC-3 prostate
  GI50: 10 µM
  TGI: 21.9 µM
OVCAR-3 ovarian
  GI50: 4.8 µM
  TGI: 15.7 µM
SK-MEL-5 melanoma
  GI50: 4.91 µM
  TGI: 15.7 µM
HOP-62 NSCLC
  GI50: 17 µM
  TGI: 31.3 µM
SW-620 colon
  GI50: 5.35 µM
  TGI: 16.5 µM
A549 NSCLC
  GI50: 4.95 µM
  TGI: 16.5 µM
DU-145 prostate
  GI50: 14.2 µM
  TGI: 28.1 µM
HS 578T breast
  GI50: 3.7 µM
  TGI: 14.5 µM
HCT-116 colon
  GI50: 8.49 µM
  TGI: 20.9 µM
NCI-H23 lung
  GI50: 12 µM
  TGI: 26.4 µM
SF-295 CNS
  GI50: 16.2 µM
  TGI: 30.1 µM
SR leukemia
  GI50: 1.16 µM
  TGI: 3.15 µM
MALME-3M melanoma
  GI50: 6.65 µM
  TGI: 18.9 µM
NCI-H322M lung
  GI50: 5.86 µM
  TGI: 18.6 µM
SN12C renal
  GI50: 13.6 µM
  TGI: 26.9 µM
MDA-MB-468 breast
  GI50: 13.4 µM
  TGI: 26.4 µM
NCI-H460 NSCLC
  GI50: 4.05 µM
  TGI: 15.2 µM
MDA-MB-231 breast
  GI50: 9.42 µM
  TGI: 22.1 µM
RPMI-8226 leukemia
  GI50: 1.86 µM
  TGI: 3.77 µM
CCRF-CEM leukemia
  GI50: 11.8 µM
  TGI: 24.3 µM
NCI/ADR-RES ovarian
  GI50: 11.1 µM
  TGI: 27.8 µM
BT-549 breast
  GI50: 5.7 µM
  TGI: 17.7 µM
SF-539 CNS
  GI50: 6.7 µM
  TGI: 19.6 µM
OVCAR-5 ovarian
  GI50: 17.6 µM
  TGI: 31.8 µM
786-0 renal
  GI50: 13.6 µM
  TGI: 26.7 µM
TK-10 renal
  GI50: 14.9 µM
  TGI: 28.3 µM
A498 renal
  GI50: 16.5 µM
  TGI: 30.3 µM
MOLT-4 leukemia
  GI50: 6.77 µM
  TGI: 19.8 µM
ACHN renal
  GI50: 12.8 µM
  TGI: 25.7 µM
SK-MEL-2 melanoma
  GI50: 21.1 µM
  TGI: 35.6 µM
HOP-92 NSCLC
  GI50: 11.6 µM
  TGI: 24 µM
K-562 leukemia
  GI50: 4.3 µM
  TGI: 18 µM
HCC-2998 colon
  GI50: 1.77 µM
  TGI: 14.7 µM
SF-268 CNS
  GI50: 11.9 µM
  TGI: 24.3 µM
HCT-15 colon
  GI50: 3.21 µM
  TGI: 13.1 µM
LOX IMVI melanoma
  GI50: 12 µM
  TGI: 24.5 µM
NCI-H522 lung
  GI50: 0.414 µM
  TGI: 2.38 µM
NCI-H226 lung
  GI50: 18.1 µM
  TGI: 32.1 µM
